According to US4820703A, “PAF-antagonistic thienotriazolodiazepine compounds and pharmaceutical uses thereof” (Yoshitomi Pharmaceutical Industries Ltd., priority 1986, dated 1989):
Converted amounts (≈) assume the structure as drawn.

Assays:
[1] = system: PAF-induced platelet aggregation; assay: Inhibitory effect on PAF-induced platelet aggregation in rabbits (in vitro test); format: cell-based; conditions: Oryctolagus cuniculus, rabbit PRP, PAF 1.8×10^-7 M, 37° C., read-out: Inhibition of PAF-induced platelet aggregation, IC50
Method: Blood samples to which was added 0.1 volume of 3.8% sodium citrate were collected from rabbits. Platelet rich plasma (PRP) was prepared by centrifuging the blood sample at 200×g for 10 minutes, and platelet poor plasma (PPP) was prepared by centrifuging the remaining blood sample at 1000×g for 10 minutes.
(§1) Aggregation ability was measured with a turbidimetric device (6-channel NKK Hematracer 1, model PAT-6A) according to the method of G.V.R. Born described in J. Physiology, vol. 168, p. 178 (1963). The aggregometer was adjusted in sensitivity to give light transmission vaues of 0 and 100% for PRP and PPP, respectively. With stirring at 1000 rpm, 0.3 μl of test compound solution or vehicle was added to 0.3 ml of PRP. After the mixture was kept at 37° C. for 2 minutes, to the mixture was added 3 μl PAF (Serdary Research Lab.) at the final concentration of 1.8×10^-7 M and the light transmission was recorded for 5 minutes.
In all experiments, PAF was dissolved in ethanol at the concentration of 100 μg/ml, and, when used, diluted with 0.9% saline solution.
(§2) The inhibition percentage of test compounds on platelet aggregation were calculated from the following formula by measuring the maximal light transmission in the presence and absence of the test compounds. [formula]

platelet aggregation = assay: Inhibitory effect on platelet aggregation in rabbits (ex vivo test); parameters: species or system rabbit; conditions: 3 animals
Method: as §1, §2
Test compound was orally administered to rabbit instead of adding it to PRP as in vitro test of Experiment 1, and then the citrated blood samples (9 volumes of blood+1 volume of 3.8% sodium citrate) were collected with the passage of time. Then, the blood samples were employed to determine the inhibitory effect at 1, 3, 6 and 24 hours after the administration of test compounds, respectively, according to Experiment 1.

PAF-induced lethal shock = assay: Effect on PAF-induced lethal shock in mice; format: in vivo, mice (male ICR); conditions: 80 μg/kg PAF i.v., 24 hours
Method: The experiment was carried out according to the method of Young et al. described in Prostaglandins, vol. 30, p. […] Groups of 9 to 15 male ICR mice (Charles River) weighing 25-30 g were used. 80 μg/kg of PAF (Serdary Research Lab.) solution was intravenously administered in a lateral tail vein 1 hour after the oral administration of test compound (0.1 ml/10 g). […] Results were given as number of survivors/number of employed animals and survival rates (%) in Table 3.

PAF-induced foot edema = assay: Effect on PAF edema (PAF-induced foot edema in rats); format: in vivo, rats (male Donryu); conditions: 1 hour after PAF 5 μg s.c.
Method: The experiment was carried out according to the method of Swingle et al. described in Agents and Actions, vol. 18, p. 359 (1986). Groups of five male Donryu rats weighing about 150 g were used. One hour after the oral administration of test compound (25 ml/kg), 5 μg/0.05 ml of PAF solution was subcutaneously injected to the paw of the right hind leg. The foot volume of the hind leg was measured 1 hour after the injection. The increasing ratios of foot volume before and after PAF injection were calculated.

central system = conditions: U.S. Pat. No. 3,904,641; cited from earlier work
benzodiazepine receptor = conditions: well-known; cited from earlier work
[2] = system: platelet-activating factor (PAF); conditions: literature (Japan. J. Pharmacol. 1987; EP-A 194416); cited from earlier work
[3] = 3 mg/kg p.o., 1 hour after administration
[4] = 3 mg/kg p.o., 3 hours after administration
[5] = 3 mg/kg p.o., 6 hours after administration
[6] = 3 mg/kg p.o., 24 hours after administration

Cc1ccc(CCc2cc3c(s2)-n2c(C)nnc2CN=C3c2ccccc2Cl)cc1 [Compound B, 4-(2-chlorophenyl)-2-[2-(4-methylphenyl)ethyl]-9-methyl-6H-thieno[3,2-f][1,2,4]triazolo[4,3-a][1,4]diazepine]
IC50 [1]: 0.01 to 0.03 µg/mL (≈ 0.0231 to 0.0693 µM)

CCCCc1ccc(CCc2cc3c(s2)-n2c(C)nnc2CN=C3c2ccccc2Cl)cc1 [Compound E, 4-(2-chlorophenyl)-2-[2-(4-n-butylphenyl)ethyl]-9-methyl-6H-thieno[3,2-f][1,2,4]triazolo[4,3-a][1,4]diazepine]
% of inhibition (platelet aggregation; [3]): 100±0%
% of inhibition (platelet aggregation; [4]): 100±0%
% of inhibition (platelet aggregation; [5]): 100±0%
% of inhibition (platelet aggregation; [6]): 94±6%
Survival rate (PAF-induced lethal shock; 1.0 mg/kg p.o.): 70.0%
number of survivors/number of employed animals (PAF-induced lethal shock; 1.0 mg/kg p.o.): 7/10
Survival rate (PAF-induced lethal shock; 3.0 mg/kg p.o.): 100.0%
number of survivors/number of employed animals (PAF-induced lethal shock; 3.0 mg/kg p.o.): 10/10
IC50 [1]: 0.01 µg/mL (≈ 0.021 µM)
Inhibition (foot edema) (PAF-induced foot edema; 0.1 mg/kg oral): 55%
Inhibition (foot edema) (PAF-induced foot edema; 1 mg/kg oral): 78%
Inhibition (foot edema) (PAF-induced foot edema; 3 mg/kg oral): 75%

Cc1nnc2n1-c1sc(CCCc3ccc(CC(C)C)cc3)cc1C(c1ccccc1Cl)=NC2 [Compound I, 4-(2-chlorophenyl)-2-[3-(4-isobutylphenyl)propyl]9-methyl-6H-thieno[3,2-f][1,2,4]triazolo[4,3-a][1,4]diazepine]
IC50 [1]: 0.01 µg/mL (≈ 0.0204 µM)

Cc1nnc2n1-c1sc(CCc3ccc(CC(C)C)cc3)cc1C(c1ccccc1Cl)=NC2C (centres unmarked) [Compound K, 4-(2-chlorophenyl)-2-[2-(4-isobutylphenyl)ethyl]-6,9-dimethyl-6H-thieno[3,2-f][1,2,4]triazolo[4,3-a][1,4]diazepine]
IC50 [1]: 0.01 to 0.03 µg/mL (≈ 0.0204 to 0.0613 µM)

Cc1nnc2n1-c1sc(Cc3ccc(CC(C)C)cc3)cc1C(c1ccccc1Cl)=NC2 [Compound H, 4-(2-chlorophenyl)-2-(4-isobutylbenzyl)-9-methyl-6H-thieno[3,2-f][1,2,4]triazolo[4,3-a][1,4]diazepine]
IC50 [1]: 0.003 to 0.01 µg/mL (≈ 0.00651 to 0.0217 µM)

Cc1nnc2n1-c1sc(CCc3ccccc3)cc1C(c1ccccc1Cl)=NC2 [Compound G, 4-(2-chlorophenyl)-2-(2-phenylethyl)-9-methyl-6H-thieno[3,2-f][1,2,4]triazolo[4,3-a][1,4]diazepine]
IC50 [1]: 0.03 to 0.1 µg/mL (≈ 0.0716 to 0.239 µM)

COc1ccc(CCc2cc3c(s2)-n2c(C)nnc2CN=C3c2ccccc2Cl)cc1 [Compound D, 4-(2-chlorophenyl)-2-[2-(4-methoxyphenyl)ethyl]-9-methyl-6H-thieno[3,2-f][1,2,4]triazolo[4,3-a][1,4]diazepine]
IC50 [1]: 0.01 to 0.03 µg/mL (≈ 0.0223 to 0.0668 µM)

Cc1nnc2n1-c1sc(CCc3ccc(-c4ccccc4)cc3)cc1C(c1ccccc1Cl)=NC2 [Compound F, 4-(2-chlorophenyl)-2-[2-(4-phenylphenyl)ethyl]-9-methyl-6H-thieno[3,2-f][1,2,4]triazolo[4,3-a][1,4]diazepine]
IC50 [1]: 0.01 to 0.03 µg/mL (≈ 0.0202 to 0.0606 µM)

CCCCc1ccc(CCc2cc3c(s2)-n2c(C)nnc2C(C)N=C3c2ccccc2Cl)cc1 (centres unmarked) [Compound L, 4-(2-chlorophenyl)-2-[2-(4-n-butylphenyl)ethyl]6,9-dimethyl-6H-thieno[3,2-f][1,2,4]triazolo[4,3-a][1,4]diazepine]
IC50 [1]: 0.01 to 0.03 µg/mL (≈ 0.0204 to 0.0613 µM)

Cc1nnc2n1-c1sc(CCc3ccc(CC(C)C)cc3)cc1C(c1ccccc1Cl)=NC2 [Compound A, 4-(2-chlorophenyl)-2-[2-(4-isobutylphenyl)ethyl]-9-methyl-6H-thieno[3,2-f][1,2,4]triazolo[4,3-a][1,4]diazepine]
% of inhibition (platelet aggregation; [3]): 97±3%
% of inhibition (platelet aggregation; [4]): 100±0%
% of inhibition (platelet aggregation; [5]): 100±0%
% of inhibition (platelet aggregation; [6]): 100±0%
Survival rate (PAF-induced lethal shock; 3.0 mg/kg p.o.): 100.0%
number of survivors/number of employed animals (PAF-induced lethal shock; 3.0 mg/kg p.o.): 9/9
IC50 [1]: 0.003 to 0.01 µg/mL (≈ 0.00631 to 0.021 µM)
Inhibition (foot edema) (PAF-induced foot edema; 0.3 mg/kg oral): 31%
Inhibition (foot edema) (PAF-induced foot edema; 1 mg/kg oral): 51%
Inhibition (foot edema) (PAF-induced foot edema; 3 mg/kg oral): 59%

Cc1nnc2n1-c1sc(CCCCc3ccc(CC(C)C)cc3)cc1C(c1ccccc1Cl)=NC2 [Compound C, 4-(2-chlorophenyl)-2-[4-(4-isobutylphenyl)butyl]-9-methyl-6H-thieno[3,2-f][1,2,4]triazolo[4,3-a][1,4]diazepine]
Survival rate (PAF-induced lethal shock; 3.0 mg/kg p.o.): 100.0%
number of survivors/number of employed animals (PAF-induced lethal shock; 3.0 mg/kg p.o.): 9/9
IC50 [1]: 0.03 to 0.1 µg/mL (≈ 0.0596 to 0.199 µM)

CCc1cc2c(s1)-n1c(C)nnc1CN=C2c1ccccc1Cl [Etizolam, 6-(o-chlorophenyl)-8-ethyl-1-methyl-4H-s-triazolo[3,4-c]thieno[2,3-e][1,4]diazepine, reference compound]
% of inhibition (platelet aggregation; 10 mg/kg p.o., printed once for the 1, 3, 6, 24 hours columns): no effect
pharmacological activities against the central nervous system (central system): antianxiety or anticonvulsant activities
IC50 [1]: 1.3 µg/mL (≈ 3.79 µM)
Inhibition (foot edema) (PAF-induced foot edema; 10 mg/kg oral): 38%
Inhibition (foot edema) (PAF-induced foot edema; 25 mg/kg oral): 54%
affinity for the benzodiazepine receptor (benzodiazepine receptor): high affinity
antagonistic activity on PAF [2]: exhibits antagonistic activity

CCc1nnc2n1-c1sc(CCc3ccc(CC(C)C)cc3)cc1C(c1ccccc1Cl)=NC2 [Compound J, 4-(2-chlorophenyl)-9-ethyl-2-[2-(4-isobutylphenyl)ethyl]-6H-thieno[3,2-f][1,2,4]triazolo[4,3-a][1,4]diazepine]
IC50 [1]: 0.01 to 0.03 µg/mL (≈ 0.0204 to 0.0613 µM)
